Measured values from EP0346760A2, “Derivatives of nigericine, methods for their preparation, compositions containing them and their use” (priority 1988, dated 1989).
≈ marks a conversion by molar mass, not a printed value. Like-named read-outs stand apart in the source and are kept apart here.

Experiments:
Format in all cases: cell-based
Herpes I = conditions: HeLa or Vero cells, 72 h CPE, about 50 % of the cells survive
Herpes II = conditions: HeLa or Vero cells, 72 h CPE, about 50 % of the cells survive
Influenza A = conditions: HeLa or Vero cells, 72 h CPE, about 50 % of the cells survive
Rhinovirus II = conditions: Rhino. II; HeLa or Vero cells, 72 h CPE; about 50 % of the cells survive
Vaccina = conditions: HeLa or Vero cells, 72 h CPE, about 50 % of the cells survive
HeLa- bzw. Vero-Zellen = test: Maximum tolerated dose (DTM) in cell culture; conditions: HeLa or Vero cells
Procedure: Die Prüfsubstanzen wurden in Zellkulturmedium (Dulbecco's MEM) gelöst und in einer geometrischen Verdünnungsreihe, Faktor 3, in Standard-Mikrotiterplatten in 100 µl Zellkulturmedium vorgelegt. Anschließend erfolgte die Zugabe von 100 µl einer Suspension von HeLa- bzw. Vero-Zellen in Medium mit 5 % fötalem Kälberserum in einer Zelldichte von 2 x 10⁵ Zellen/ml. Die Ansätze wurden mit 50 µl einer Suspension des jeweiligen Test-Virus infiziert, die so eingestellt war, daß die Zellen innerhalb von 72 h einen cytopathogenen Effekt (CPE) zeigten. Die Auswertung erfolgte durch mikroskopische Begutachtung des Zellrasens und photometrische Messung der Neutralrotaufnahme (Farbtest nach Finter). Als MHK wurde die Konzentration des Präparats angenommen (µg/ml), bei der etwa 50 % der Zellen die Infektion überlebten.
In Spalte 9 ist die DTM (Dosis Tolerata Maxima) in µg/ml angegeben. Tabelle 4

Staph. aureus (SG 511) = test: Agar dilution test (Lorian), antibacterial activity; conditions: Staphylococcus aureus
Procedure: (§1) Die antibakterielle Wirksamkeit der erfindungsgemäßen Verbindungen wurde im Agar-Verdünnungstest nach Lorian (Antibiotics in Laboratory Medicine, Williams & Wilkins, Baltimore/London, 1980) bestimmt. Dabei wurden die Präparate in einer geometrischen Verdünnungsreihe mit dem Faktor 2 in Müller Hinton Agar verdünnt. Eine Petrischale enthielt nur Müller Hinton Agar und diente zur Kontrolle des Bakterienwachstums. Die Petrischalen wurden dann mit einem Denley-Multipoint-Inokulator, welcher 0,6 µl einer 1 : 100 verdünnten 18-Stunden-Kultur der Testbakterien übertrug, mit den entsprechenden Testbakterien beimpft. Nach 16 bis 18 Stunden Inkubation bei 37°C wurden die Petrischalen makroskopisch auf Bakterienwachstum untersucht.
(§2) Die niedrigste Konzentration der erfindungsgemäßen Verbindungen, welche das Bakterienwachstum noch vollständig verhinderte, wurde als MIC (Minimum Inhibitory Concentration) angenommen.
(§3) In Tabelle 3 ist die Wirkung (Angabe des MIC in µg/ml) von verschiedenen erfindungsgemäßen Verbindungen gegen folgende Bakterien aufgeführt: Staph. aureus (SG 511), Staph. aureus (285), Staph. aureus (503), Strept. pyogenes (308 A), Strept. pyogenes (77 A), Strept. faecium (D). Tabelle 3

Strept. pyogenes (77 A) = test: as above; conditions: Streptococcus pyogenes
Procedure: as §1, §2, §3

Strept. faecium (D) = test: as above; conditions: Enterococcus faecium
Procedure: as §1, §2, §3

Staph. aureus (503) = test: as above; conditions: Staphylococcus aureus
Procedure: as §1, §2, §3

Staph. aureus (285) = test: as above; conditions: Staphylococcus aureus
Procedure: as §1, §2, §3

Strept. pyogenes (308 A) = test: as above; conditions: Streptococcus pyogenes
Procedure: as §1, §2, §3

Adeno 5 = conditions: HeLa or Vero cells, 72 h CPE, concentration at which about 50 % of the cells survive the infection
Paramyxo. III = conditions: HeLa or Vero cells, 72 h CPE, about 50 % of the cells survive
[1] = Staph. aureus (SG 511), Müller Hinton Agar, 16 to 18 h at 37°C, lowest concentration that completely prevents growth, read-out: MIC
[2] = Strept. pyogenes (77 A), Müller Hinton Agar, 16 to 18 h at 37°C, read-out: MIC
[3] = Strept. faecium (D), Müller Hinton Agar, 16 to 18 h at 37°C, read-out: MIC
[4] = Staph. aureus (503), Müller Hinton Agar, 16 to 18 h at 37°C, read-out: MIC
[5] = Staph. aureus (285), Müller Hinton Agar, 16 to 18 h at 37°C, read-out: MIC
[6] = Strept. pyogenes (308 A), Müller Hinton Agar, 16 to 18 h at 37°C, read-out: MIC

SMILES: COC1CC(CC2CCC(C)C(C(C)C(=O)O)O2)OC2(OC(C)(C3CCC(C)(C4OC(C5OC(O)(CCl)C(C)CC5C)CC4C)O3)CC2C)C1C (stereo not shown) [Beispiel 2]
- MHK (Herpes I): 0,05 µg/ml
- MHK (Herpes II): < 0,02 µg/ml
- MHK (Influenza A): 0,05 µg/ml
- MHK (Rhinovirus II): 0,49 µg/ml
- MHK (Vaccina): 0,49 µg/ml
- DTM (Dosis Tolerata Maxima) (HeLa- bzw. Vero-Zellen): 1,48 µg/ml
- MIC (Staph. aureus (SG 511); [1]): 0.098 µg/mL (≈ 0.132 µM)
- MIC (Strept. pyogenes (77 A); [2]): 0.007 µg/mL (≈ 0.00942 µM)
- MIC (Strept. faecium (D); [3]): 0.391 µg/mL (≈ 0.526 µM)
- MIC (Staph. aureus (503); [4]): 0.025 µg/mL (≈ 0.0336 µM)
- MIC (Staph. aureus (285); [5]): 0.098 µg/mL (≈ 0.132 µM)
- MIC (Strept. pyogenes (308 A); [6]): 0.013 µg/mL (≈ 0.0175 µM)

SMILES: COC1CC(CC2CCC(C)C(C(C)C(=O)O)O2)OC2(OC(C)(C3CCC(C)(C4OC(C5OC(O)(CBr)C(C)CC5C)CC4C)O3)CC2C)C1C (stereo not shown) [Beispiel 3]
- MHK (Herpes I): 0,01 µg/ml
- MHK (Herpes II): 0,3 µg/ml
- MHK (Influenza A): 0,03 µg/ml
- MHK (Rhinovirus II): 0,3 µg/ml
- DTM (Dosis Tolerata Maxima) (HeLa- bzw. Vero-Zellen): 0,89 µg/ml
- MIC (Staph. aureus (SG 511); [1]): 0.013 µg/mL (≈ 0.0165 µM)
- MIC (Strept. pyogenes (77 A); [2]): < 0.002 µg/mL
- MIC (Strept. faecium (D); [3]): 0.098 µg/mL (≈ 0.124 µM)
- MIC (Staph. aureus (503); [4]): 0.007 µg/mL (≈ 0.00888 µM)
- MIC (Staph. aureus (285); [5]): 0.013 µg/mL (≈ 0.0165 µM)
- MIC (Strept. pyogenes (308 A); [6]): < 0.002 µg/mL
- MHK (Adeno 5): 0,01 µg/ml

SMILES: COC1CC(CC2CCC(C)C(C(C)C(=O)O)O2)OC2(OC(C)(C3CCC(C)(C4OC(C5OC(O)(C[N+](=O)[O-])C(C)CC5C)CC4C)O3)CC2C)C1C (stereo not shown) [Beispiel 5]
- MIC (Staph. aureus (SG 511); [1]): 0.049 µg/mL (≈ 0.065 µM)
- MIC (Strept. pyogenes (77 A); [2]): 0.004 µg/mL (≈ 0.00531 µM)
- MIC (Strept. faecium (D); [3]): 0.098 µg/mL (≈ 0.13 µM)
- MIC (Staph. aureus (503); [4]): 0.025 µg/mL (≈ 0.0332 µM)
- MIC (Staph. aureus (285); [5]): 0.049 µg/mL (≈ 0.065 µM)
- MIC (Strept. pyogenes (308 A); [6]): 0.004 µg/mL (≈ 0.00531 µM)

SMILES: CCCCOCC1(O)OC(C2CC(C)C(C3(C)CCC(C4(C)CC(C)C5(OC(CC6CCC(C)C(C(C)C(=O)O)O6)CC(OC)C5C)O4)O3)O2)C(C)CC1C (stereo not shown) [Beispiel 8]
- MHK (Herpes I): 4,44 µg/ml
- MHK (Herpes II): 0,16 µg/ml
- MHK (Influenza A): 0,05 µg/ml
- MHK (Paramyxo. III): 4,44 µg/ml
- MHK (Rhinovirus II): 4,44 µg/ml
- MHK (Vaccina): 4,44 µg/ml
- DTM (Dosis Tolerata Maxima) (HeLa- bzw. Vero-Zellen): 13,3 µg/ml
- MIC (Staph. aureus (SG 511); [1]): 0.78 µg/mL (≈ 0.999 µM)
- MIC (Strept. pyogenes (77 A); [2]): 0.098 µg/mL (≈ 0.125 µM)
- MIC (Strept. faecium (D); [3]): 3.13 µg/mL (≈ 4.01 µM)
- MIC (Staph. aureus (503); [4]): 0.78 µg/mL (≈ 0.999 µM)
- MIC (Staph. aureus (285); [5]): 1.56 µg/mL (≈ 2 µM)
- MIC (Strept. pyogenes (308 A); [6]): 0.19 µg/mL (≈ 0.243 µM)
- MHK (Adeno 5): 0,16 µg/ml

SMILES: COC1CC(CC2CCC(C)C(C(C)C(=O)O)O2)OC2(OC(C)(C3CCC(C)(C4OC(C5OC(O)(CO[Si](c6ccccc6)(c6ccccc6)C(C)(C)C)C(C)CC5C)CC4C)O3)CC2C)C1C (stereo not shown) [Beispiel 9]
- MHK (Herpes I): 0,05 µg/ml
- MHK (Herpes II): 0,05 µg/ml
- MHK (Influenza A): 0,05 µg/ml
- MHK (Paramyxo. III): 4,44 µg/ml
- MHK (Rhinovirus II): 4,44 µg/ml
- MHK (Vaccina): 4,44 µg/ml
- DTM (Dosis Tolerata Maxima) (HeLa- bzw. Vero-Zellen): 4,44 µg/ml
- MIC (Staph. aureus (SG 511)): 0.78 µg/mL (≈ 0.81 µM)
- MIC (Strept. pyogenes (77 A)): 0.025 µg/mL (≈ 0.026 µM)
- MIC (Strept. faecium (D)): 0.7 µg/mL (≈ 0.727 µM)
- MIC (Staph. aureus (503)): 0.78 µg/mL (≈ 0.81 µM)
- MIC (Staph. aureus (285)): 0.78 µg/mL (≈ 0.81 µM)
- MIC (Strept. pyogenes (308 A)): 0.025 µg/mL (≈ 0.026 µM)
- MHK (Adeno 5): 0,05 µg/ml

SMILES: COC1CC(CC2CCC(C)C(C(C)C(=O)O)O2)OC2(OC(C)(C3CCC(C)(C4OC(C5OC(O)(CSC#N)C(C)CC5C)CC4C)O3)CC2C)C1C (stereo not shown) [Beispiel 4]
- MIC (Strept. pyogenes (77 A)): 0.098 µg/mL (≈ 0.128 µM)
- MIC (Strept. faecium (D)): 0.78 µg/mL (≈ 1.02 µM)
- MIC (Staph. aureus (503)): 0.78 µg/mL (≈ 1.02 µM)
- MIC (Staph. aureus (285)): 0.78 µg/mL (≈ 1.02 µM)
- MIC (Strept. pyogenes (308 A)): 0.098 µg/mL (≈ 0.128 µM)

SMILES: COCC1(O)OC(C2CC(C)C(C3(C)CCC(C4(C)CC(C)C5(OC(CC6CCC(C)C(C(C)C(=O)O)O6)CC(OC)C5C)O4)O3)O2)C(C)CC1C (stereo not shown) [Beispiel 7]
- MHK (Herpes I): 0,05 µg/ml
- MHK (Herpes II): 0,05 µg/ml
- MHK (Influenza A): 0,05 µg/ml
- MHK (Rhinovirus II): 1,48 µg/ml
- MHK (Vaccina): 0,49 µg/ml
- DTM (Dosis Tolerata Maxima) (HeLa- bzw. Vero-Zellen): 4,44 µg/ml
- MIC (Staph. aureus (SG 511); [1]): 0.78 µg/mL (≈ 1.06 µM)
- MIC (Strept. pyogenes (77 A); [2]): 0.19 µg/mL (≈ 0.257 µM)
- MIC (Strept. faecium (D); [3]): 3.13 µg/mL (≈ 4.24 µM)
- MIC (Staph. aureus (503); [4]): 0.39 µg/mL (≈ 0.528 µM)
- MIC (Staph. aureus (285); [5]): 0.78 µg/mL (≈ 1.06 µM)
- MIC (Strept. pyogenes (308 A); [6]): 0.39 µg/mL (≈ 0.528 µM)
- MHK (Adeno 5): 0,16 µg/ml
